This passage reports TGI results from PubChem BioAssay (NCI).

Test systems include SR leukemia; 786-0 renal; SNB-75 CNS; SN12C renal; TK-10 renal; SF-295 CNS; SNB-19 CNS; UACC-257 melanoma; SK-MEL-5 melanoma; ACHN renal; T-47D breast.
Test in all cases: inhibition of tumour cell growth, NCI panel, 48 h

Structures are written as SMILES.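 Each compound was tested at five concentrations against cells in 96-well plates for 48 hours. At the TGI there is no net growth.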

For `Cc1ccccc1NC(=O)CSc1nnc(-c2ccc(N=Cc3ccc(Cl)cc3)cc2)o1`, the TGI in the test on SR leukemia, in the test with 786-0 renal, in the test with SNB-75 CNS, in the test with SN12C renal, in the test with TK-10 renal and in the test with SF-295 CNS was over 100 µM each time. The TGI with SNB-19 CNS, in the test with UACC-257 melanoma, in the test with SK-MEL-5 melanoma and in the test with ACHN renal was over 100 µM in each case.
As for `Cc1nc(NC(C)(CO)CO)nc(N/N=C/c2ccc(Cl)cc2)c1C(=O)Nc1ccc(Cl)cc1`, the TGI in the test on T-47D breast, in the test with 786-0 renal, in the test with SNB-75 CNS, in the test on SN12C renal, in the test on TK-10 renal and with SF-295 CNS was over 100 µM in each case. The TGI with SNB-19 CNS, in the test on UACC-257 melanoma and in the test on ACHN renal was over 100 µM in each case.
For the molecule `CC(C)(C)C(=O)Nc1c(C=O)ccc2[nH]cnc12`, the TGI with T-47D breast, with 786-0 renal, with SNB-75 CNS, with SN12C renal, in the test on TK-10 renal and in the test on SF-295 CNS was over 100 µM throughout. Moreover, the TGI with SNB-19 CNS, with UACC-257 melanoma, in the test with SK-MEL-5 melanoma and in the test with ACHN renal was over 100 µM in each case.
As to `COC(=O)c1sc(=O)sc1SCc1cccc(CSc2sc(=O)sc2C(=O)OC)c1`, the TGI was over 100 µM with T-47D breast; 31.4 µM with 786-0 renal; over 100 µM in the test on SN12C renal; 57.5 µM with TK-10 renal; over 100 µM with SF-295 CNS; 61.6 µM in the test on SNB-19 CNS. For the same molecule, the TGI in the test on UACC-257 melanoma, in the test on SK-MEL-5 melanoma and with ACHN renal was over 100 µM throughout.
Consider `COC(=O)[C@]1(c2cc3ccccc3n2S(=O)(=O)c2ccccc2)CC2CN(C(=O)OCc3ccccc3)C1C1OC(C)(C)OC21` (stereo partly specified), for which the TGI in the test on 786-0 renal, in the test with SNB-75 CNS, in the test on SN12C renal, in the test with TK-10 renal, with SF-295 CNS and with UACC-257 melanoma was over 100 µM in each case. Also, the TGI with SK-MEL-5 melanoma and in the test on ACHN renal was over 100 µM throughout.
On to `Cc1cc(=O)[nH]c(NNC(C#N)c2cccc([N+](=O)[O-])c2)n1` (stereo unspecified), for which the TGI with SR leukemia, in the test on 786-0 renal, with SNB-75 CNS, in the test on SN12C renal, in the test on TK-10 renal and in the test on SF-295 CNS was over 100 µM each time. Moreover, the TGI in the test with UACC-257 melanoma, in the test with SK-MEL-5 melanoma and with ACHN renal was over 100 µM throughout.
With `COc1cc2c(cc1O)C1Cc3ccc(OC)c(O)c3C[N+]1(C)CC2` (stereo unspecified), the TGI in the test on T-47D breast, with 786-0 renal, in the test with SNB-75 CNS, in the test with SN12C renal, with TK-10 renal and with SF-295 CNS was over 100 µM in each case. The TGI in the test on SNB-19 CNS, in the test on SK-MEL-5 melanoma and with ACHN renal was over 100 µM in each case.
In the case of `CSC(SC)=C(C(=O)c1ccc(Cl)cc1)n1c(=O)sc2cc(Br)ccc21`, the TGI in the test on T-47D breast, in the test on 786-0 renal, in the test on SN12C renal, in the test on TK-10 renal, with SF-295 CNS and in the test with SNB-19 CNS was over 100 µM throughout. Further, the TGI in the test with UACC-257 melanoma, in the test on SK-MEL-5 melanoma and in the test with ACHN renal was over 100 µM throughout.
Consider `O=C1c2ccccc2-c2nc3ccncc3n21`, for which the TGI with SR leukemia, in the test with 786-0 renal, in the test on SNB-75 CNS, with SN12C renal, in the test on TK-10 renal and in the test on SF-295 CNS was over 100 µM each time. The TGI in the test on SNB-19 CNS, with UACC-257 melanoma and in the test with ACHN renal was over 100 µM each time.
As to `FC1=C2C3CCC(C3)C2C1(F)F` (stereo unspecified), the TGI in the test with T-47D breast, in the test with 786-0 renal, in the test with SNB-75 CNS, in the test with SN12C renal, with TK-10 renal and with SF-295 CNS was over 100 µM in each case. The TGI with SNB-19 CNS, with UACC-257 melanoma, with SK-MEL-5 melanoma and with ACHN renal was over 100 µM in each case.
For `CC(=O)C(=Cc1cn(C)c(=O)n(C)c1=O)C(C)=O`, the TGI with SNB-75 CNS was 240 µM; in the test with SN12C renal, 216 µM; with SF-295 CNS, 254 µM; in the test on SNB-19 CNS it was 414 µM; in the test on UACC-257 melanoma, 177 µM; in the test on SK-MEL-5 melanoma, 176 µM.
Take `O=C(CNc1ccccc1C(=O)O)Nn1cnc2ccc(S(=O)(=O)Nc3ccccc3C(=O)O)cc2c1=O`: the TGI in the test on SR leukemia, with 786-0 renal, in the test on SNB-75 CNS, with SN12C renal, in the test on TK-10 renal and in the test with SF-295 CNS was over 100 µM in each case. Also, the TGI in the test with SNB-19 CNS, in the test with UACC-257 melanoma and in the test on ACHN renal was over 100 µM in each case.
As for `c1cnc2c(c1)-n1cccc1C1(CCCCC1)NN2`, the TGI in the test on SR leukemia, with 786-0 renal, with SNB-75 CNS, with SN12C renal, in the test with TK-10 renal and in the test with SF-295 CNS was over 100 µM in each case. Also, the TGI in the test with SNB-19 CNS, in the test with UACC-257 melanoma, with SK-MEL-5 melanoma and with ACHN renal was over 100 µM each time.
For `NC(=O)CCC(N=c1c2ccccc2n(O)c2ccccc12)C(=O)O` (stereo unspecified), the TGI in the test with 786-0 renal, in the test with SNB-75 CNS, with SN12C renal, in the test with TK-10 renal, with SF-295 CNS and in the test on SNB-19 CNS was over 100 µM in each case. For the same molecule, the TGI with SK-MEL-5 melanoma and with ACHN renal was over 100 µM in each case.
Consider `N#Cc1c(-c2ccc([N+](=O)[O-])cc2)c(C#N)c(=O)n(NS(=O)(=O)c2ccccc2)c1S`, for which the TGI in the test on 786-0 renal was over 100 µM; in the test with SNB-75 CNS, over 100 µM; with SN12C renal, 34.9 µM; in the test on TK-10 renal, over 100 µM; in the test with SF-295 CNS, over 100 µM; with SNB-19 CNS, over 100 µM. Moreover, the TGI in the test on UACC-257 melanoma was over 100 µM; with SK-MEL-5 melanoma it was 30.4 µM; in the test with ACHN renal, over 100 µM.
On to `C=C(NC(=O)C(=C)NC(=O)c1ccc2c(n1)-c1coc(n1)C(=C)NC(=O)C(=C)NC(=O)c1nc(oc1C)C(=C)NC(=O)C(C(C)(C)O)NC(=O)C(=C)NC(=O)c1coc(n1)/C(=C/C)NC(=O)[C@H]([C@@H](C)O)NC(=O)c1csc-2n1)C(N)=O` (stereo partly specified), for which the TGI with SR leukemia, in the test with 786-0 renal, in the test on SNB-75 CNS, in the test on SN12C renal, with TK-10 renal and in the test on SF-295 CNS was over 87.5 µM throughout. The TGI in the test with SNB-19 CNS, in the test with UACC-257 melanoma, with SK-MEL-5 melanoma and with ACHN renal was over 87.5 µM each time.
Turning to `N#Cc1ccccc1NC(=O)C(=O)C(C(=O)c1ccccc1F)C1OC(=O)c2ccccc21` (stereo unspecified), the TGI in the test with SR leukemia is 57 µM; in the test on SNB-75 CNS it was over 100 µM; in the test with SN12C renal it was over 100 µM; in the test with TK-10 renal it was over 100 µM; with SF-295 CNS, over 100 µM; in the test with SNB-19 CNS it was over 100 µM. Moreover, the TGI in the test with UACC-257 melanoma, in the test with SK-MEL-5 melanoma and in the test with ACHN renal was over 100 µM in each case.
`CC1=C(C)C(=O)C(C2=CC(=O)c3ccccc3C2=O)=C(C2=CC(=O)c3ccccc3C2=O)C1=O`: the TGI was 45.1 µM with T-47D breast; over 58.1 µM in the test with 786-0 renal; 31.5 µM in the test on SNB-75 CNS; over 38.4 µM in the test on TK-10 renal; over 55.2 µM in the test on SF-295 CNS; over 36.5 µM in the test on SNB-19 CNS. For the same molecule, the TGI was determined as 28.6 µM with UACC-257 melanoma and 14.9 µM in the test on ACHN renal.
`COc1cc2c[n+]3c4c(c2c(OC)c1OC)CCCC4CC3` (stereo unspecified): the TGI with T-47D breast is over 100 µM; in the test on 786-0 renal, over 100 µM; in the test with SF-295 CNS, over 100 µM; in the test with SNB-19 CNS it was over 100 µM; with UACC-257 melanoma, over 100 µM; in the test with SK-MEL-5 melanoma, 46.9 µM. Also, the TGI in the test on ACHN renal is over 100 µM.
Take `CCN1CC2(C)CCC(OC)C34C5CC6CCC(O)(C5C(=O)O6)C(C(O)C23)C14` (stereo unspecified): the TGI with T-47D breast, in the test with 786-0 renal, with SNB-75 CNS, in the test on TK-10 renal, in the test on SF-295 CNS and with SNB-19 CNS was over 100 µM throughout. The TGI with UACC-257 melanoma, with SK-MEL-5 melanoma and with ACHN renal was over 100 µM throughout.
For the molecule `O=C(O)c1c(CC(Cc2ccc3c(c2)CCC3)C(=O)O)ccc2c1CCC2` (stereo unspecified), the TGI with SR leukemia, with 786-0 renal, in the test with SN12C renal, in the test with TK-10 renal, with SF-295 CNS and with SNB-19 CNS was over 100 µM in each case. In addition, the TGI in the test with UACC-257 melanoma, in the test on SK-MEL-5 melanoma and in the test on ACHN renal was over 100 µM each time.
